Laboratory results reported in US20190151307A1 (priority 2017, published 2019).

How the values were obtained:
[1] = intracellular TFV-DP with TDF; cited from earlier work
HIV = settings: cited from earlier work
[2] = Phase 1 study: steady-state plasma PK of TAF and TFV after B/F/TAF BID with rifampin vs B/F/TAF QD alone; type: in vivo, human; settings: BID TAF administration (B/F/TAF BID+RIF), compared to prior PK results of TDF-containing regimens, FIG. 2
Method: This study evaluated the steady state pharmacokinetics of TAF, TAF metabolite TFV, and emtricitabine (FTC) following coadministration of bictegravir/emtricitabine/tenofovir alafenamide (B/F/TAF) fixed dose combination (FDC) twice daily with rifampin 600 mg once daily compared to those of B/F/TAF FDC once daily administered alone.
In this Phase 1, open-label, parallel multiple dose study, healthy volunteers were assigned to one of two cohorts (cohort 1 (n=26) or cohort 2 (n=26)) and received study treatments beginning on day 1 and continuing for 28 days (cohort 1) or 35 days (cohort 2).
The duration of the study was approximately 57 days for cohort 1 and approximately 44 days for cohort 2. […]
Pharmacokinetic assessments of plasma PK and PBMC PK were evaluated. […] PK parameters of TFV-DP and FTC-TP in PBMCs were calculated as applicable and included AUCtau, Ctrough, Cmax, accumulation ratios, and t1/2 with and without RIF. […]
Plasma concentrations of TAF and TFV were determined and pharmacokinetics were evaluated as applicable.
Plasma concentrations were determined using validated liquid chromatography-tandem mass spectrometry (LC/MS/MS) assays. Intracellular PBMC TFV-DP concentrations were determined via a validated LC/MS/MS assay combined with PBMC cell counting via a DNA quantitation procedure. […]

[3] = peripheral blood mononuclear cells (PBMC) isolated from patients; cited from earlier work
clinical = type: in vivo, human; settings: single dose BIC 75 mg, fed, RIF 600 mg
Method: This was a Phase 1, open-label, multiple-dose, multiple-cohort, adaptive design study in healthy adult subjects.
The duration of dosing was 9 days (with a 3-day washout between the first and second doses of study treatment). The study duration (not including screening) was approximately 21 days. The study had n=15 subjects.
In addition, the following multiple-dose plasma PK parameters of GS-9883 were calculated, as applicable: Ctau, Cmax, Clast, AUCtau, Tmax, Tlast, t1/2, and CL/F.
Serial blood samples for intensive PK sampling were collected at the following time points relative to the morning dose of study drug(s) administered: 0 (pre-dose) and 0.5, 1, 1.5, 2, 3, 4, 6, 8, 10, 12, 16, 24, 36, 48, 72, and 96 hours post-dose on Days 1 and 15. Daily pre-dose PK sampling was collected at days 10 and 14.
The ANOVA model included treatment as a fixed effect and subject as a random effect.

CC(C)OC(=O)OCOP(=O)(CO[C@H](C)Cn1cnc2c(N)ncnc21)OCOC(=O)OC(C)C [TDF, 9-[(R)-2-[[bis[[(isopropoxycarbonyl)oxy]methoxy]phosphinyl]methoxy]propyl]adenine]
historical steady-state TFV-DP threshold effectiveness concentration [1]: 85-222 fmol/10^6 cells

CC(C)OC(=O)[C@H](C)N[P@](=O)(CO[C@H](C)Cn1cnc2c(N)ncnc21)Oc1ccccc1 [TAF, 9-[(R)-2-[[(S)-[[(S)-1-(isopropoxycarbonyl)ethyl]amino]phenoxyphosphinyl]-methoxy]propyl]adenine]
enhancement in anti-HIV activity in cell culture of TAF over TFV (HIV): 600 fold
total overall systemic TFV plasma exposure over 24 hours vs TDF-containing regimens [2]: markedly lower

C[C@@H](Cn1cnc2c(N)ncnc21)OCP(=O)(O)OP(=O)(O)OP(=O)(O)O [TFV-DP]
intracellular half-life [3]: 150 h

O=C(NCc1c(F)cc(F)cc1F)c1cn2c(c(O)c1=O)C(=O)N1[C@H]3CC[C@H](C3)O[C@@H]1C2 [BIC]
half-life (clinical; human, in vivo, BIC t1/2, plasma, median per text): ~18.1 h
BIC % AUCexp, Mean (% CV) (clinical; plasma): 3.1%
BIC CL/F, Mean (% CV) (clinical; plasma): 545.1 mL/h
BIC Clast, Mean (% CV) (clinical; plasma): 192.7 ng/mL
BIC Tlast (clinical; plasma): 95.93 h
